From article PMC6934184, “Selective DNA-PKcs inhibition extends the therapeutic index of localized radiotherapy and chemotherapy” (The Journal of Clinical Investigation, 2019)

Molecular target: T1, MATK (HYL) (Homo sapiens, UniProt P42679)
T1 construct: purchased Thermo Fisher Scientific (Life Technologies) SelectScreen
Assay: SelectScreen Z'LYTE
Assay type: biochemical
Method in brief: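 SelectScreen broad panel; activity (Z'LYTE, Adapta) plus binding formats. ATP: Km app for CSF1R Z'LYTE; 10 for CAMK1 Adapta. Readout = % per kinase.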

T1 sequence (P42679 whole entry): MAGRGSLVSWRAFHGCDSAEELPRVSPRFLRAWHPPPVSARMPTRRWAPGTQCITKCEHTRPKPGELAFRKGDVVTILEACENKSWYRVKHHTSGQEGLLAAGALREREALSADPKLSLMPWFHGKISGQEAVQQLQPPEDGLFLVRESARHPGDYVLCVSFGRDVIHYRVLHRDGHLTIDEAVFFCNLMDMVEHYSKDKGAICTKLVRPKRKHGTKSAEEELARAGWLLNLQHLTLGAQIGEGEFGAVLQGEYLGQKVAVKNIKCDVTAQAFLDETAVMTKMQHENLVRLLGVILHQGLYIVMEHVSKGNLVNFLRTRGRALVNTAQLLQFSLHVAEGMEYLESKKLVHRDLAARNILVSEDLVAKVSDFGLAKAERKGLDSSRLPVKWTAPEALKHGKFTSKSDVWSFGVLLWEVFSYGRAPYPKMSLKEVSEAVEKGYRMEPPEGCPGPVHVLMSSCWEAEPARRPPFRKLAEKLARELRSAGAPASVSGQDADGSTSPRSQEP

CN(C(=O)CN1CCOCC1)c1ccc2sc3c(-c4cccc5c(=O)cc(N6CC7CCC(C6)O7)oc45)cccc3c2c1 [NU5455]
inhibition at 1 µM: -6.3%
